Reference: PMC13077603, “Fluorine‐18‐Labeled Nucleotide Analogs Targeting Ecto‐5'‐Nucleotidase (CD73) for Positron Emission Tomography Imaging of Solid Tumors” (Angewandte Chemie (International Ed. in English), 2026)

Key:
[1] = target: T1, Soluble recombinant human CD73 (Homo sapiens, UniProt P21589); assay: CD73 enzyme inhibition assay, soluble recombinant human CD73; format: biochemical; conditions: soluble recombinant human CD73, Km 17 µM, substrate AMP (5 µM)
T1 sequence (P21589 27-549 limits assumed): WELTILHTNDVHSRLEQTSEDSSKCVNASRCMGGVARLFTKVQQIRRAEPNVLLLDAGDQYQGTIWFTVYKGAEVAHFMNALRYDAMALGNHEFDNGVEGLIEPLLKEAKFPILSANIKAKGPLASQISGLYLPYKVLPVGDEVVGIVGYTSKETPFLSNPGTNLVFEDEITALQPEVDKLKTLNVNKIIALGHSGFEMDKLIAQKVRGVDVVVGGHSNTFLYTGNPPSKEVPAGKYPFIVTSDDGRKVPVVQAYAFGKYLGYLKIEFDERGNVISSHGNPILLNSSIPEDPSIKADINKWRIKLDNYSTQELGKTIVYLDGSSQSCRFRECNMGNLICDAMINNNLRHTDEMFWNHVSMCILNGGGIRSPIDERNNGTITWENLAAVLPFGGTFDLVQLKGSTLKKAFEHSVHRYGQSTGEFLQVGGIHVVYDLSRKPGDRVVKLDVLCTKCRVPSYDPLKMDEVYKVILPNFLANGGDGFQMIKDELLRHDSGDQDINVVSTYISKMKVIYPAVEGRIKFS
Experimental: Both compounds were evaluated for metabolic stability in mouse liver microsomes (MLM) and plasma protein binding (PPB) (Table 1).
The CD73 enzyme inhibition assay of recombinant soluble CD73, membrane-bound human CD73, soluble rat CD73 and mouse CD73 was performed as previously described.^[16,35^]

[2] = target: Human serum albumin (HSA) (Homo sapiens, UniProt P02768); assay: Plasma protein binding (human serum albumin binding); format: in vitro ADME; conditions: human serum albumin (HSA), read-out: Plasma protein binding (PPB) (converted)
Chain of Human serum albumin (HSA) (P02768 25-609): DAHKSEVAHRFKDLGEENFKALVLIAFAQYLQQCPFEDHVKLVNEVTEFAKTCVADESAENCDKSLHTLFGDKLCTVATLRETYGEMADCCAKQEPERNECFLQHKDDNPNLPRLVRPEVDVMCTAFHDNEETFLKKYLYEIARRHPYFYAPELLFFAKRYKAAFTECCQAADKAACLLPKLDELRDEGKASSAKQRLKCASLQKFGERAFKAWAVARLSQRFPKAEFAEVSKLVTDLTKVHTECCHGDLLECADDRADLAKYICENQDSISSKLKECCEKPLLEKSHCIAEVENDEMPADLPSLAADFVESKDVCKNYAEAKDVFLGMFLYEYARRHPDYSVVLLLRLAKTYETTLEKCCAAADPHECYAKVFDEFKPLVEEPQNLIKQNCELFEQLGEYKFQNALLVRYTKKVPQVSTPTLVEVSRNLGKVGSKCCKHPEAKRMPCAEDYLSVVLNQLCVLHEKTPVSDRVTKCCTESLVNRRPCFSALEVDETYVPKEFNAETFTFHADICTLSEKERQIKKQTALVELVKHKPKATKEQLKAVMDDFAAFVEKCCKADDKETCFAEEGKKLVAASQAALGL
Experimental: Human serum albumin (HSA) binding.
Plasma protein binding was determined following previously published procedure.^[38^]

[3] = logD7.4 determination of radiotracers (PBS/octan-1-ol); format: physicochemical; conditions: octan-1-ol/PBS; PBS pH 7.4 / octan-1-ol, radiotracer
Experimental: The logD 7.4 values of both radiotracers were determined using a previously described method based on their distribution between phosphate‐buffered saline (PBS) and octan‐1‐ol.
Triazole radiotracers (~400 kBq) in PBS buffer (10 µL, pH 7.4) were added to PBS buffer (590 µL, pH 7.4) and octan-1-ol (600 µL). The two-layer mixture was shaken for 3 min on a vortex mixer at r.t. and centrifuged (200 g) for 5 min. The main part of the octanol layer (400 µL) was carefully collected and transferred to a new tube containing PBS buffer (400 µL, pH 7.4). The two-layer mixture was shaken again for 10 min and centrifuged for 5 min (200 g). Three samples were prepared, and two aliquots (á 100 µL) of both layers were measured in a gamma-counter 2480 Wizard2 (Perkin-Elmer, Waltham, USA). The partition coefficient was determined by dividing cpm (octanol) by cpm (PBS) and indicated as logD7.4 (exp.).

[4] = target: T2, CD73/AMPase activity in human breast tumor tissues (Homo sapiens, UniProt P21589); assay: In situ enzyme histochemistry of AMPase activity in breast tumor cryosections; format: biochemical; conditions: 10–50 nM inhibitor, 400 µM AMP, tissue cryosections
T2 construct: cryosections of breast tumor samples as well as sentinel lymph node samples were investigated; from tissue; host or cells: primary breast tumors and sentinel lymph nodes of two patients, 6 µm cryosections
T2 sequence (P21589 27-574): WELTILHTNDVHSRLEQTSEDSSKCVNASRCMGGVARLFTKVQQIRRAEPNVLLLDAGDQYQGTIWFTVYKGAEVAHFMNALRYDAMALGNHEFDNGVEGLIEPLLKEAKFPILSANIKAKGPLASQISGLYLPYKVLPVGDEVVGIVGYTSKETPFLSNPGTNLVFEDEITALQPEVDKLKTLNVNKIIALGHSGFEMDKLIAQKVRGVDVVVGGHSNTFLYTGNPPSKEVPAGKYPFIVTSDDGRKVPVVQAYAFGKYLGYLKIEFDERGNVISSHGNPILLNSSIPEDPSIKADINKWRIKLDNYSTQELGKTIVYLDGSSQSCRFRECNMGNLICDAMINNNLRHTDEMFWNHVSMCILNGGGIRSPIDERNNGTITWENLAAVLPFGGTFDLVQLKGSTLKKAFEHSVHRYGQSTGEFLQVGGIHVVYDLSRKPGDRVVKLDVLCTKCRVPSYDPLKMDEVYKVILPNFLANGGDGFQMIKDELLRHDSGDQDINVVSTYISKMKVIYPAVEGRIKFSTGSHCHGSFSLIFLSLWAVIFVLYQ
Experimental: Subsequent analysis of CD73‐mediated AMPase activities was performed by incubating tissue cryosections with AMP and CD73 inhibitors at different concentrations. Figure 2 depicts representative images of AMP‐specific staining in breast tumors from patient X (panel A) and patient Y (panel B), determined in the absence (control) and in the presence of 10 nM of the potent CD73 inhibitor 1.
FIGURE 3 Effects of CD73 inhibitors on AMPase activity in human breast tumor tissues. The effects of CD73 inhibitors on AMPase activity was determined in situ by incubating primary breast tumor samples from patient X (A) and patient Y (B) with 400 µM AMP and 1.5 mM Pb(NO3)2 in the absence (control) and the presence of the indicated concentrations of CD73 inhibitor. (C). Mean pixel intensities of brown staining due to the hydrolysis of AMP leading to Pb3(PO4)2 precipitation were quantified in the selected regions and expressed as arbitrary units (AU) (mean ± SEM; n = 2). Scale bars: 2 mm (A, B), and 500 µm (A, right insets).
For the localization of AMPase activities in human tumors, the lead nitrate-based enzyme histochemistry was employed. […] AMPase activity was determined by measuring AMP-specific brown staining intensities from the images using QuPath v.0.3.0 software. […] The average DAB intensity levels were measured as described earlier.^[39^] […]

## Cn1c(=O)n([C@@H]2O[C@H](COP(=O)(O)CP(=O)(O)O)[C@@H](O)[C@H]2O)cc/c1=N/OCc1ccc(-c2cn(CCF)nn2)cc1 [compound 2, [((2R,3S,4R,5R)-5-{4-[({4-[1-(2-Fluoroethyl)-1H-1,2,3-triazol-4-yl]benzyl}oxy)-imino]-3-methyl-2-oxo-3,4-dihydropyrimidin-1(2H)-yl}-3,4-dihydroxytetrahydro-furan-2-yl)methoxy]-(phosphonomethyl)phosphonic acid]
[1]
  Ki: 664 pM
[2]
  fraction unbound: 0.34
[3]
  logD: 0.74 ± 0.3
[4]
  Reduction of CD73/AMPase activity in the breast TME: 60%–70
